# According to patent publication US3966718A, “7-β-Acylamino-ceph-3-ems and salts and esters therefor” (Beecham Group Limited, priority 1973, dated 1976):
# Where a name gives a salt, the structure may show the parent alone. Read-outs that look alike come from different tables or passages of the source.
# Legend:
# Type in all cases: cell-based
# [1] = tested on: Klebsiella aerogenes A; experiment: MIC on nutrient agar; conditions: read-out: minimum inhibitory concentration (MIC)
# [2] = tested on: β-Haemolytic Strep. CN10; experiment: MIC on (nutrient) agar; conditions: read-out: minimum inhibitory concentration (MIC)
# [3] = tested on: Proteus mirabilis C977; experiment: MIC on nutrient agar; conditions: Proteus mirabilis C977, nutrient agar; read-out: minimum inhibitory concentration (MIC)
# [4] = tested on: Salmonella typhi; experiment: MIC on nutrient agar; conditions: Salmonella enterica, read-out: minimum inhibitory concentration (MIC)
# [5] = tested on: Staph. aureus Russell; experiment: MIC on (nutrient) agar; conditions: Staphylococcus aureus, read-out: minimum inhibitory concentration (MIC)
# [6] = tested on: Shigella sonnei; experiment: MIC on nutrient agar; conditions: read-out: minimum inhibitory concentration (MIC)
# [7] = tested on: Staph. aureus Oxford; experiment: MIC on (nutrient) agar; conditions: Staphylococcus aureus, read-out: minimum inhibitory concentration (MIC)
# [8] = tested on: B. subtilis; experiment: MIC on (nutrient) agar; conditions: Bacillus subtilis, read-out: minimum inhibitory concentration (MIC)
# [9] = tested on: E. coli JT 1; experiment: MIC on nutrient agar; conditions: Escherichia coli
# [10] = tested on: Strep. pneumoniae CN33; experiment: MIC on (nutrient) agar; conditions: Streptococcus pneumoniae, read-out: minimum inhibitory concentration (MIC)
# [11] = tested on: E. coli NCTC 10418; experiment: MIC on nutrient agar; conditions: Escherichia coli, NCTC10418; E. coli NCTC 10418, nutrient agar; read-out: minimum inhibitory concentration (MIC)
# [12] = Klebsiella aerogenes A, nutrient agar
SMILES,MIC ([1]; Klebsiella aerogenes),"MIC ([2]; β-Haemolytic Strep. CN10, agar)",MIC [3],MIC [4],"MIC ([5]; Staph. aureus Russell, agar)",MIC [6],MIC [7],"MIC ([8]; B. subtilis, agar)","MIC ([9]; JT1, read-out: minimum inhibitory concentration (MIC))","MIC [1, 12]","MIC ([9]; JT1, E. coli JT 1, nutrient agar, read-out: minimum inhibitory concentration (MIC))",MIC [10],MIC [11],MIC [2],MIC [8],MIC [5]
"NC(CC(=O)N[C@@H]1C(=O)N2C(C(=O)O)=C(Cc3cccnc3)CS[C@H]12)C1CC=CCC1 (mixture of isomers) [Example 18, 7β-(DL-3-[cyclohex-3-ene]-3-aminopropionamido)-3(3-pyridylmethyl)-3-cephem-4-carboxylic acid di-trifluoroacetic acid salt]",125 µg/mL,0.5 µg/mL,250 µg/mL,125 µg/mL,1.25 µg/mL,125 µg/mL,0.5 µg/mL,1.25 µg/mL,125 µg/mL,–,–,–,–,–,–,–
"NC(C(=O)N[C@@H]1C(=O)N2C(C(=O)O)=C(Cc3cccnc3)CS[C@H]12)C1CC1 (mixture of isomers) [Example 19, 7β-(DL-α-aminocyclopropylacetamido)-3(3-pyridylmethyl)-3-cephem-4-carboxylic acid di-trifluoroacetic acid salt]",–,2.5 µg/mL,500 µg/mL,250 µg/mL,12.5 µg/mL,250 µg/mL,5 µg/mL,12.5 µg/mL,–,250 µg/mL,500 µg/mL,–,–,–,–,–
"O=C(Cc1cccs1)N[C@@H]1C(=O)N2C(C(=O)O)=C(Cc3cccnc3)CS[C@H]12 [Example 1, 3-(3-pyridylmethyl)-7β-(2-thienylacetamido)-3-cephem-4-carboxylic acid trifluoroacetate salt]",–,0.1 µg/mL,–,–,10 µg/mL,–,0.05 µg/mL,0.25 µg/mL,–,–,–,0.1 µg/mL,–,–,–,–
"O=C(O)C1=C(Cc2cccnc2)CS[C@@H]2[C@H](NC(=O)[C@H](O)c3ccccc3)C(=O)N12 [Example 3, 7β(D-α-hydroxyphenylacetamido)-3(3-pyridylmethyl)-3-cephem-4-carboxylic acid trifluoroacetate salt]",–,0.25 µg/mL,5 µg/mL,2.5 µg/mL,12.5 µg/mL,2.5 µg/mL,0.25 µg/mL,0.12 µg/mL,–,2.5 µg/mL,–,0.5 µg/mL,2.5 µg/mL,–,–,–
"N[C@@H](C(=O)N[C@@H]1C(=O)N2C(C(=O)O)=C(Cc3cccnc3)CS[C@H]12)c1ccccc1 [Example 4, 7β(D-α-aminophenylacetamido)-3(3-pyridylmethyl)-3-cephem-4-carboxylic acid di-trifluoroacetate salt]",–,0.25 µg/mL,5 µg/mL,1.25 µg/mL,2.5 µg/mL,2.5 µg/mL,0.25 µg/mL,0.25 µg/mL,–,2.5 µg/mL,–,0.5 µg/mL,2.5 µg/mL,–,–,–
"C[n+]1cccc(CC2=C(C(=O)O)N3C(=O)[C@@H](NC(=O)[C@H](O)c4ccccc4)[C@H]3SC2)c1 [Example 5, 7β(D-α-hydroxyphenylacetamide)-3(3-pyridylmethyl)-3-cephem-4-carboxylic acid metho-trifluoroacetate]",–,0.02 µg/mL,125 µg/mL,50 µg/mL,5 µg/mL,50 µg/mL,0.12 µg/mL,0.25 µg/mL,–,50 µg/mL,–,0.12 µg/mL,50 µg/mL,–,–,–
"O=C(O)C(F)(F)F.O=C(O)C1=C(Cc2cccnc2)CS[C@@H]2[C@H](NC(=O)C(C(=O)Oc3ccccc3)c3ccccc3)C(=O)N12 (stereo partly drawn) [Example 6, 7β(α-phenoxycarbonylphenylacetamido)-3(3-pyridylmethyl)-3-cephem-4-carboxylic acid trifluoroacetate]",–,–,25 µg/mL,125 µg/mL,25 µg/mL,12.5 µg/mL,5 µg/mL,–,–,–,–,–,50 µg/mL,12.5 µg/mL,12.5 µg/mL,–
"N[C@@H](C(=O)N[C@@H]1C(=O)N2C(C(=O)O)=C(Cc3ccccn3)CS[C@H]12)c1ccccc1 [Example 7, 7β(Dα-aminophenylacetamido)-3(2-pyridylmethyl)-3-cephem-4-carboxylic acid di-trifluoroacetate]",–,1.25 µg/mL,125 µg/mL,12.5 µg/mL,–,25 µg/mL,1.25 µg/mL,1.25 µg/mL,–,–,–,–,50 µg/mL,–,–,12.5 µg/mL
